For 21 molecules, IC50 results are on record in patent publication US11919901B2 (Syndax Pharmaceuticals, Inc., priority 2021, dated 2024).

The experiment concerns MV4-11 cells. The experiment is described as follows: Cell proliferation assay MV4;11 (CellTiter-Glo, 72 hours). The format is cell-based. The settings on record: Homo sapiens, read-out: MV4. Summed up:
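Luminescent CellTiter-Glo readout after 72 h culture, 37 °C, 5% CO2, expressed relative to vehicle-treated wells, with maximal inhibition taken at the highest dose. MLL-rearranged MV4-11 leukemia cells; final compound range 0.632 to 2000 nM in eight steps.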
(In ATP-based viability assays light output follows the ATP content of the culture.)

[1] abbreviates: MV4;11 leukemia cell line, 72 hours, 11 IC50.

Read-outs that look alike come from different tables or passages of the source. Where only a bound is given, the exact number is not on record here.

`CC(C)N(CC(F)F)C(=O)c1cc(F)ccc1Oc1nncnc1N1CC2(CCN(C[C@@H]3CC[C@@H](NS(=O)(=O)C4CC4)CO3)CC2)C1` [Example 186, 2-((5-(7-(((2S,5R)-5-(Cyclopropanesulfonamido)tetrahydro-2H-pyran-2-yl)methyl)-2,7-diazaspiro[3.5]nonan-2-yl)-1,2,4-triazin-6-yl)oxy)-N-(2,2-difluoroethyl)-5-fluoro-N-isopropylbenzamide]: under setting [1], the IC50 is under 100 nM.
On to `CC(C)N(C(=O)c1cc(F)ccc1Oc1cncnc1N1CC2(CCN(C[C@@H]3CC[C@@H](NS(=O)(=O)C4CC4)CO3)CC2)C1)C(C)C` [Example 15, 2-((4-(7-(((2S,5R)-5-(Cyclopropanesulfonamido)tetrahydro-2H-pyran-2-yl)methyl)-2,7-diazaspiro[3.5]nonan-2-yl)pyrimidin-5-yl)oxy)-5-fluoro-N,N-diisopropylbenzamide], for which the IC50 under setting [1] was under 100 nM.
Take `CCN(C(=O)c1cc(F)ccc1Oc1cncnc1N1CC2(CCN(C[C@@H]3CC[C@@H](NS(N)(=O)=O)CO3)CC2)C1)C(C)C` [Example 73, N-Ethyl-5-fluoro-N-isopropyl-2-((4-(7-(((2S,5R)-5-(sulfamoylamino)tetrahydro-2H-pyran-2-yl)methyl)-2,7-diazaspiro[3.5]nonan-2-yl)pyrimidin-5-yl)oxy)benzamide]: under setting [1], the IC50 lay in the range of 100 to 1000 nM.
Turning to `CCS(=O)(=O)N[C@@H]1CC[C@@H](CN2CCC3(CC2)CN(c2ncncc2Oc2ccc(F)cc2C(=O)N(C(C)C)C2CC2)C3)OC1` [Example 19, N-Cyclopropyl-2-((4-(7-(((2S,5R)-5-(ethylsulfonamido)tetrahydro-2H-pyran-2-yl)methyl)-2,7-diazaspiro[3.5]nonan-2-yl)pyrimidin-5-yl)oxy)-5-fluoro-N-isopropylbenzamide], the IC50 under setting [1] is under 100 nM.
On the same count and under the same terms, the same measure for `CC(C)N(C(=O)c1cc(F)ccc1Oc1cncnc1N1CC2(CCN(C[C@@H]3CC[C@@H](NS(=O)(=O)N4CCCC4)CO3)CC2)C1)[C@H]1CCOC1` [Example 178, 5-Fluoro-N-isopropyl-2-((4-(7-(((2S,5R)-5-(pyrrolidine-1-sulfonamido)tetrahydro-2H-pyran-2-yl)methyl)-2,7-diazaspiro[3.5]nonan-2-yl)pyrimidin-5-yl)oxy)-N-((S)-tetrahydrofuran-3-yl)benzamide]: under 100 nM.
For `CC(C)N(CC(F)F)C(=O)c1cc(F)ccc1Oc1cncnc1N1CC2(CCN(C[C@@H]3CC[C@@H](NS(=O)(=O)NCC(F)F)CO3)CC2)C1` [Example 235, N-(2,2-Difluoroethyl)-2-((4-(7-(((2S,5R)-5-((N-(2,2-difluoroethyl)sulfamoyl)amino)tetrahydro-2H-pyran-2-yl)methyl)-2,7-diazaspiro[3.5]nonan-2-yl)pyrimidin-5-yl)oxy)-5-fluoro-N-isopropylbenzamide], where the note is “MV4-11, 72 h, 11 IC50 (nM)”, the IC50 is under 100 nM.
With `CC(C)N(C(=O)c1cc(F)ccc1Oc1cncnc1N1CC2(CCN(C[C@@H]3CC[C@@H](NS(=O)(=O)C4CC4)CO3)CC2)C1)C1CC1` [Example 21, 2-((4-(7-(((2S,5R)-5-(Cyclopropanesulfonamido)tetrahydro-2H-pyran-2-yl)methyl)-2,7-diazaspiro[3.5]nonan-2-yl)pyrimidin-5-yl)oxy)-N-cyclopropyl-5-fluoro-N-isopropylbenzamide], the IC50 under setting [1] was under 100 nM.
Still for that read-out and setting: the same measure for `C[C@@H]1COC[C@H](C)N1C(=O)c1cc(F)ccc1Oc1cncnc1N1CC2(CCN(C[C@@H]3CC[C@@H](NS(C)(=O)=O)CO3)CC2)C1` [Example 23, N-((3R,6S)-6-((2-(5-(2-((3S,5R)-3,5-Dimethylmorpholine-4-carbonyl)-4-fluorophenoxy)pyrimidin-4-yl)-2,7-diazaspiro[3.5]nonan-7-yl)methyl)tetrahydro-2H-pyran-3-yl)methanesulfonamide]: 100 to 1000 nM.
Consider `CC(C)N(C(=O)c1cc(F)ccc1Oc1cncnc1N1CC2(CCN(C[C@@H]3CC[C@@H](NS(=O)(=O)C4COC4)CO3)CC2)C1)C1CC(F)(F)C1` [Example 115, N-(3,3-Difluorocyclobutyl)-5-fluoro-N-isopropyl-2-((4-(7-(((2S,5R)-5-(oxetane-3-sulfonamido)tetrahydro-2H-pyran-2-yl)methyl)-2,7-diazaspiro[3.5]nonan-2-yl)pyrimidin-5-yl)oxy)benzamide], for which the IC50 under setting [1] was under 100 nM.
With `CC(C)N(C(=O)c1cc(F)ccc1Oc1cncnc1N1CC2(CCN(C[C@@H]3CC[C@@H](NS(C)(=O)=O)CO3)CC2)C1)C(C)C` [Example 12, 5-Fluoro-N,N-diisopropyl-2-((4-(7-(((2S,5R)-5-(methylsulfonamido)tetrahydro-2H-pyran-2-yl)methyl)-2,7-diazaspiro[3.5]nonan-2-yl)pyrimidin-5-yl)oxy)benzamide], under setting [1], the IC50 is under 100 nM.
On to `CCCNS(=O)(=O)N[C@@H]1CC[C@@H](CN2CCC3(CC2)CN(c2ncncc2Oc2ccc(F)cc2C(=O)N(CC(F)F)C(C)C)C3)OC1` [Example 151, N-(2,2-Difluoroethyl)-5-fluoro-N-isopropyl-2-((4-(7-(((2S,5R)-5-((N-propylsulfamoyl)amino)tetrahydro-2H-pyran-2-yl)methyl)-2,7-diazaspiro[3.5]nonan-2-yl)pyrimidin-5-yl)oxy)benzamide], for which, under setting [1], the IC50 was under 100 nM.
For `CCN(CC)S(=O)(=O)N[C@@H]1CC[C@@H](CN2CCC3(CC2)CN(c2ncncc2Oc2ccc(F)cc2C(=O)N(C(C)C)[C@H]2CCOC2)C3)OC1` [Example 175, 2-((4-(7-(((2S,5R)-5-((N,N-Diethylsulfamoyl)amino)tetrahydro-2H-pyran-2-yl)methyl)-2,7-diazaspiro[3.5]nonan-2-yl)pyrimidin-5-yl)oxy)-5-fluoro-N-isopropyl-N-((S)-tetrahydrofuran-3-yl)benzamide], under setting [1], the IC50 is under 100 nM.
As to `CC(C)N(C(=O)c1cc(F)ccc1Oc1cncnc1N1CC2(CCN(C[C@@H]3CC[C@@H](NS(=O)(=O)N(C)C)CO3)CC2)C1)C1CC1` [Example 93, N-Cyclopropyl-2-((4-(7-(((2S,5R)-5-((N,N-dimethylsulfamoyl)amino)tetrahydro-2H-pyran-2-yl)methyl)-2,7-diazaspiro[3.5]nonan-2-yl)pyrimidin-5-yl)oxy)-5-fluoro-N-isopropylbenzamide], the IC50 under setting [1] is under 100 nM.
Still for that read-out and setting: the value for `CCN(C(=O)c1cc(F)ccc1Oc1cncnc1N1CC2(CCN(C[C@@H]3CC[C@@H](NS(=O)(=O)NC4CC4)CO3)CC2)C1)C(C)C` [Example 142, 2-((4-(7-(((2S,5R)-5-((N-Cyclopropylsulfamoyl)amino)tetrahydro-2H-pyran-2-yl)methyl)-2,7-diazaspiro[3.5]nonan-2-yl)pyrimidin-5-yl)oxy)-N-ethyl-5-fluoro-N-isopropylbenzamide] was under 100 nM.
On the same count and under the same terms, the value for `C[C@@H]1COC[C@@H](C)N1C(=O)c1cc(F)ccc1Oc1cncnc1N1CC2(CCN(C[C@@H]3CC[C@@H](NS(=O)(=O)N(C)C4CC4)CO3)CC2)C1` [Example 129, N-{[(3R,6S)-6-{[2-(5-{2-[(3R,5R)-3,5-Dimethylmorpholine-4-carbonyl]-4-fluorophenoxy}pyrimidin-4-yl)-2,7-diazaspiro[3.5]nonan-7-yl]methyl}oxan-3-yl]sulfamoyl}-N-methylcyclopropanamine] was under 100 nM.
Still for that read-out and setting: the value for `CNS(=O)(=O)N[C@@H]1CC[C@@H](CN2CCC3(CC2)CN(c2ncncc2Oc2ccc(F)cc2C(=O)N(CC(F)F)C(C)C)C3)OC1` [Example 102, N-(2,2-Difluoroethyl)-5-fluoro-N-isopropyl-2-((4-(7-(((2S,5R)-5-((N-methylsulfamoyl)amino)tetrahydro-2H-pyran-2-yl)methyl)-2,7-diazaspiro[3.5]nonan-2-yl)pyrimidin-5-yl)oxy)benzamide] was under 100 nM; that for `CCS(=O)(=O)N[C@@H]1CC[C@@H](CN2CCC3(CC2)CN(c2ncncc2Oc2ccc(F)cc2C(=O)N(C(C)C)C2CC4(COC4)C2)C3)OC1` [Example 252, 2-((4-(7-(((2S,5R)-5-(Ethylsulfonamido)tetrahydro-2H-pyran-2-yl)methyl)-2,7-diazaspiro[3.5]nonan-2-yl)pyrimidin-5-yl)oxy)-5-fluoro-N-isopropyl-N-(2-oxaspiro[3.3]heptan-6-yl)benzamide] was under 100 nM.
Turning to `CC(C)N(CC(F)(F)F)C(=O)c1cc(F)ccc1Oc1cncnc1N1CC2(CCN(C[C@@H]3CC[C@@H](NS(=O)(=O)N4CCOCC4)CO3)CC2)C1` [Example 108, 5-Fluoro-N-isopropyl-2-((4-(7-(((2S,5R)-5-(morpholine-4-sulfonamido)tetrahydro-2H-pyran-2-yl)methyl)-2,7-diazaspiro[3.5]nonan-2-yl)pyrimidin-5-yl)oxy)-N-(2,2,2-trifluoroethyl)benzamide], the IC50 under setting [1] was under 100 nM.
Consider `C[C@@H]1COC[C@H](C)N1C(=O)c1cc(F)ccc1Oc1cncnc1N1CC2(CCN(C[C@@H]3CC[C@@H](NS(=O)(=O)N(C)C)CO3)CC2)C1` [Example 160, {[(3R,6S)-6-{[2-(5-{2-[(3R,5S)-3,5-Dimethylmorpholine-4-carbonyl]-4-fluorophenoxy}pyrimidin-4-yl)-2,7-diazaspiro[3.5]nonan-7-yl]methyl}oxan-3-yl]sulfamoyl}dimethylamine], for which, under setting [1], the IC50 was under 100 nM.
As to `CC(C)N(C(=O)c1cc(F)ccc1Oc1cncnc1N1CC2(CCN(C[C@@H]3CC[C@@H](NS(N)(=O)=O)CO3)CC2)C1)C(C)C` [Example 90, 5-Fluoro-N,N-diisopropyl-2-((4-(7-(((2S,5R)-5-(sulfamoylamino)tetrahydro-2H-pyran-2-yl)methyl)-2,7-diazaspiro[3.5]nonan-2-yl)pyrimidin-5-yl)oxy)benzamide], under setting [1], the IC50 was under 100 nM.
`CC(C)N(C(=O)c1cc(F)ccc1Oc1cncnc1N1CC2(CCN(C[C@@H]3CC[C@@H](NS(=O)(=O)NCC(F)(F)F)CO3)CC2)C1)[C@@H]1CCOC1` [Example 171, 5-Fluoro-N-isopropyl-N-((R)-tetrahydrofuran-3-yl)-2-((4-(7-(((2S,5R)-5-((N-(2,2,2-trifluoroethyl)sulfamoyl)amino)tetrahydro-2H-pyran-2-yl)methyl)-2,7-diazaspiro[3.5]nonan-2-yl)pyrimidin-5-yl)oxy)benzamide]: the IC50 under setting [1] was under 100 nM.
